In one assay the target is NAMPT enzyme (Homo sapiens (Human), UniProt P43490). Kind of assay: Enzyme Assay and NMN Detection (NAMPT reaction, fluorescence detection of NMN). Type of assay: biochemical. The following applies: Table B-1; NAMPT activation, NMN formation. The method, then: NAMPT reaction was performed in 50 mM HEPES, pH 7.5, containing 5 mM MgCl2, 0.1% Prionex, 0.005% Tween 20, and 1 mM TCEP at room temperature in Greiner 384-well black polypropylene plates. The concentration of substrates and enzymes in the final assay were as follows: ATP (120 uM), nicotinamide (5 uM), phosphoribosylpyrophosphate (6.25 uM), NAMPT enzyme (16 nM), pyrophosphatase (0.04 U/ml) in the final reaction volume 6 uL. Following 2 h incubation the reaction was stopped by addition 2.5 ul 20% acetophenone in dimethyl sulfoxide (DMSO) and 2.5 ul 2 MKOH. Plates were centrifuges and added with 10.5 ul 88% formic acid. The fluorescence (ex380/em460) was measured following another short incubation and 30 min incubation. The increased concentration of NMN was determined from a calibration curve obtained at the time of experiment.
NAMPT enzyme, sequence (P43490 whole entry, species assumed): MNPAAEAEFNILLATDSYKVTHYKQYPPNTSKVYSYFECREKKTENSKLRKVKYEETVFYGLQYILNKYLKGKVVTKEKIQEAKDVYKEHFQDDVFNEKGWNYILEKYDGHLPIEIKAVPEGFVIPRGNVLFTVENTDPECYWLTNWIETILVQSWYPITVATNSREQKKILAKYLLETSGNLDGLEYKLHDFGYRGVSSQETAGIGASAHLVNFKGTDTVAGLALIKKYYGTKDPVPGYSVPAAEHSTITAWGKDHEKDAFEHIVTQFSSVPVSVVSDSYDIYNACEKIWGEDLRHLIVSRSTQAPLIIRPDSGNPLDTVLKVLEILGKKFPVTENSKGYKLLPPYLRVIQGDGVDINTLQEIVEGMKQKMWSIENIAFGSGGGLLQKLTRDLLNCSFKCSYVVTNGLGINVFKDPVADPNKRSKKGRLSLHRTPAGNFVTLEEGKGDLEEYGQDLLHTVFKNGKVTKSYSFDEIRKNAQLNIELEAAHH
In the case of `O=C(NCc1cn[nH]c1)Nc1ccc(S(=O)(=O)c2ccccc2)cc1` [1-(4-Benzenesulfonyl-phenyl)-3-(1H-pyrazol-4-ylmethyl)-urea], the EC50 is < 100 nM.
Same read-out and setting: the same measure for `O=C(NCc1cnco1)Nc1ccc(S(=O)(=O)c2ccccc2)cc1` [1-(4-Benzenesulfonyl-phenyl)-3-oxazol-5-ylmethyl-urea]: < 100 nM.

The same assay, now with this note: Table B-2; NAMPT activation, NMN formation.
Turning to `O=C(NCc1ccncc1)Nc1ccc(C(=O)N2Cc3ccccc3C2)cc1` [1-(4-(Isoindoline-2-carbonyl)phenyl)-3-(pyridin-4-ylmethyl)urea], the EC50 is > 20000 nM.
Still for that read-out and setting: the same measure for `O=C(NCc1ccncc1)Nc1ccc(C(=O)N2CCOCC2)cc1` [1-(4-(Morpholine-4-carbonyl)phenyl)-3-(pyridin-4-ylmethyl)urea]: 5000 to 20000 nM.
On to `O=C(NCc1ccncc1)Nc1ccc(C(=O)N2CCCCC2)cc1` [1-(4-(Piperidine-1-carbonyl)phenyl)-3-(pyridin-4-ylmethyl)urea], for which the EC50 fell in the range of 5000 to 20000 nM.
Regarding `O=C(NCc1ccncc1)Nc1ccc(S(=O)(=O)c2ccccc2)cc1` [1-(4-Benzenesulfonyl-phenyl)-3-pyridin-4-ylmethyl-urea], the EC50 was < 100 nM.
`O=C(NCc1ccncc1)Nc1ccc(Cl)cc1` [1-(4-Chlorophenyl)-3-(pyridin-4-ylmethyl)urea] yielded an EC50 of 5000 to 20000 nM.
As for `O=C(NCc1ccncc1)Nc1ccc(F)cc1` [1-(4-Fluorophenyl)-3-(pyridin-4-ylmethyl)urea], the EC50 was > 20000 nM.
Same read-out and setting: the same measure for `COc1ccc(NC(=O)NCc2ccncc2)cc1` [1-(4-Methoxyphenyl)-3-(pyridin-4-ylmethyl)urea]: > 20000 nM; for `O=C(NCc1ccncc1)Nc1ccc(S(=O)(=O)Cc2ccccc2)cc1` [1-(4-Phenylmethanesulfonyl-phenyl)-3-pyridin-4-ylmethyl-urea]: 2000 to 5000 nM; for `O=C(NCc1ccncc1)Nc1ccc(NS(=O)(=O)Cc2ccc(Cl)cc2)cc1` [1-(4-chlorophenyl)-N-(4-(3-(pyridin-4-ylmethyl)ureido)phenyl)methanesulfonamide]: < 100 nM.

Still in this assay, the particulars now being: Table B-3; NAMPT activation, NMN formation.
For `O=C(NCc1ccccn1)Nc1ccc(Cl)cc1` [1-(4-Chlorophenyl)-3-(pyridin-2-ylmethyl)urea], the EC50 was > 20000 nM.
On the same count and under the same terms, the same measure for `O=C(NCc1cccnc1)Nc1ccc(Cl)cc1` [1-(4-Chlorophenyl)-3-(pyridin-3-ylmethyl)urea]: > 20000 nM.
As for `O=C(NCc1ccccn1)Nc1ccc(F)cc1` [1-(4-Fluorophenyl)-3-(pyridin-2-ylmethyl)urea], the EC50 is > 20000 nM.
Consider `O=C(NCc1cccnc1)Nc1ccc(F)cc1` [1-(4-Fluorophenyl)-3-(pyridin-3-ylmethyl)urea], for which the EC50 was > 20000 nM.
For `COc1ccc(NC(=O)NCc2ccccn2)cc1` [1-(4-Methoxyphenyl)-3-(pyridin-2-ylmethyl)urea], the EC50 was > 20000 nM.
`COc1ccc(NC(=O)NCc2cccnc2)cc1` [1-(4-Methoxyphenyl)-3-(pyridin-3-ylmethyl)urea]: the EC50 is > 20000 nM.

Still in this assay, the particulars now being: Table B-4; NAMPT activation, NMN formation.
For `O=C(NCc1cn[nH]c1)Nc1ccc(-c2cccc3scnc23)cc1` [1-(4-Benzothiazol-4-yl-phenyl)-3-(1H-pyrazol-4-ylmethyl)-urea], the EC50 fell in the range of 100 to 2000 nM.
For `O=C(NCc1cn[nH]c1)Nc1ccc(S(=O)(=O)C2CCCCC2)cc1` [1-(4-Cyclohexanesulfonyl-phenyl)-3-(1H-pyrazol-4-ylmethyl)-urea], the EC50 is 100 to 2000 nM.
As for `Cc1cccc2c1c(-c1ccc(NC(=O)NCc3cn[nH]c3)cc1)nn2C` [1-((1H-Pyrazol-4-yl)methyl)-3-(4-(1,4-dimethyl-1H-indazol-3-yl)phenyl)urea], the EC50 was 100 to 2000 nM.
Consider `Cc1ccc2c(c1)c(-c1ccc(NC(=O)NCc3cn[nH]c3)cc1)nn2C` [1-((1H-Pyrazol-4-yl)methyl)-3-(4-(1,5-dimethyl-1H-indazol-3-yl)phenyl)urea], for which the EC50 lay in the range of 100 to 2000 nM.
On the same count and under the same terms, the same measure for `Cc1cccc2c(-c3ccc(NC(=O)NCc4cn[nH]c4)cc3)nn(C)c12` [1-((1H-Pyrazol-4-yl)methyl)-3-(4-(1,7-dimethyl-1H-indazol-3-yl)phenyl)urea]: 2000 to 5000 nM; for `Cn1nc(-c2ccc(NC(=O)NCc3cn[nH]c3)cc2)c2ccncc21` [1-((1H-Pyrazol-4-yl)methyl)-3-(4-(1-methyl-1H-pyrazolo[3,4-c]pyridin-3-yl)phenyl)urea]: 2000 to 5000 nM; for `O=C(NCc1cn[nH]c1)Nc1ccc(-c2ncc(Cc3ccccc3)s2)cc1` [1-((1H-Pyrazol-4-yl)methyl)-3-(4-(5-benzylthiazol-2-yl)phenyl)urea]: 2000 to 5000 nM.

The assay is the same for the next values; noted with them: Table B-5; NAMPT activation, NMN formation.
Consider `O=C(NCc1cnco1)Nc1ccc(S(=O)(=O)c2cccc(Cl)c2)cc1` [1-(4-((3-Chlorophenyl)sulfonyl)phenyl)-3-(oxazol-5-ylmethyl)urea], for which the EC50 was < 100 nM.
On to `O=C(NCc1cnco1)Nc1ccc(S(=O)(=O)c2cccc(F)c2)cc1` [1-(4-((3-Fluorophenyl)sulfonyl)phenyl)-3-(oxazol-5-ylmethyl)urea], for which the EC50 fell in the range of 100 to 2000 nM.
In turn, `O=C(NCc1cnco1)Nc1ccc(S(=O)(=O)c2ccc(Cl)cc2)cc1` [1-(4-((4-Chlorophenyl)sulfonyl)phenyl)-3-(oxazol-5-ylmethyl)urea] registered a concentration for a half-maximal effect (EC50) of 100 to 2000 nM.
Turning to `O=C(NCc1cnco1)Nc1ccc(S(=O)(=O)c2ccc(F)cc2)cc1` [1-(4-((4-Fluorophenyl)sulfonyl)phenyl)-3-(oxazol-5-ylmethyl)urea], the EC50 lay in the range of 100 to 2000 nM.
Turning to `O=C(NCc1cnco1)Nc1ccc(-c2nc3ccccc3s2)cc1` [1-(4-(Benzo[d]thiazol-2-yl)phenyl)-3-(oxazol-5-ylmethyl)urea], the EC50 was 5000 to 20000 nM.
In turn, `O=C(NCc1cnco1)Nc1ccc(Nc2nc3ccccc3s2)cc1` [1-(4-(Benzo[d]thiazol-2-ylamino)phenyl)-3-(oxazol-5-ylmethyl)urea] registered an EC50 of 5000 to 20000 nM.
For the compound `O=C(NCc1cnco1)Nc1ccc(S(=O)(=O)c2ccccc2-c2ccccc2)cc1` [1-(4-([1,1′-Biphenyl]-2-ylsulfonyl)phenyl)-3-(oxazol-5-ylmethyl)urea], the EC50 is < 100 nM.
Compound `O=C(NCc1cnco1)Nc1ccc(S(=O)(=O)c2cccc(-c3ccccc3)c2)cc1` [1-(4-([1,1′-Biphenyl]-3-ylsulfonyl)phenyl)-3-(oxazol-5-ylmethyl)urea] registered an EC50 of 100 to 2000 nM.
Same read-out and setting: the same measure for `O=C(NCc1cnco1)Nc1ccc(-c2cccc3scnc23)cc1` [1-(4-Benzothiazol-4-yl-phenyl)-3-oxazol-5-ylmethyl-urea]: 100 to 2000 nM; for `O=C(NCc1cnco1)Nc1ccc(NS(=O)(=O)Cc2ccc(Cl)cc2)cc1` [1-(4-Chlorophenyl)-N-(4-(3-(oxazol-5-ylmethyl)ureido)phenyl)methanesulfonamide]: < 100 nM.
The same measure, in the same setting: the same measure for `O=C(NCc1cnco1)Nc1ccc(S(=O)(=O)C2CCCCC2)cc1` [1-(4-cyclohexanesulfonyl-phenyl)-3-oxazol-5-ylmethyl-urea]: 2000 to 5000 nM.

Staying with this assay, now noted: Table B-6; NAMPT activation, NMN formation.
`Cc1ccccc1-c1ccccc1S(=O)(=O)c1ccc(NC(=O)NCc2ccncc2)cc1` [1-(4-((2′-Methyl-[1,l′-biphenyl]-2-yl)sulfonyl)phenyl)-3-(pyridin-4-ylmethyl)urea] came in with an EC50 of 100 to 2000 nM.
As to `O=C(NCc1ccncc1)Nc1ccc(S(=O)(=O)c2cccc(F)c2)cc1` [1-(4-((3-Fluorophenyl)sulfonyl)phenyl)-3-(pyridin-4-ylmethyl)urea], the EC50 was < 100 nM.
`N#Cc1cccc(-c2ccccc2S(=O)(=O)c2ccc(NC(=O)NCc3ccncc3)cc2)c1` [1-(4-((3′-Cyano-[1,1′-biphenyl]-2-yl)sulfonyl)phenyl)-3-(pyridin-4-ylmethyl)urea] returned an EC50 of 2000 to 5000 nM.
On the same count and under the same terms, the same measure for `O=C(NCc1ccncc1)Nc1ccc(S(=O)(=O)c2ccc(F)cc2)cc1` [1-(4-((4-Fluorophenyl)sulfonyl)phenyl)-3-(pyridin-4-ylmethyl)urea]: 100 to 2000 nM.
The compound `O=C(NCc1ccncc1)Nc1ccc(Nc2nc(-c3ccccc3)cs2)cc1` [1-(4-((4-Phenylthiazol-2-yl)amino)phenyl)-3-(pyridin-4-ylmethyl)urea] came in with an EC50 of 100 to 2000 nM.
`N#Cc1ccc(-c2ccccc2S(=O)(=O)c2ccc(NC(=O)NCc3ccncc3)cc2)cc1` [1-(4-((4′-Cyano-[1,l′-biphenyl]-2-yl)sulfonyl)phenyl)-3-(pyridin-4-ylmethyl)urea] registered an EC50 of 5000 to 20000 nM.
`O=C(NCc1ccncc1)Nc1ccc(Nc2ncc(-c3ccccc3)s2)cc1` [1-(4-((5-Phenylthiazol-2-yl)amino)phenyl)-3-(pyridin-4-ylmethyl)urea]: the EC50 fell in the range of 5000 to 20000 nM.
Same read-out and setting: the same measure for `O=C(NCc1ccncc1)Nc1ccc(-c2nc3ccccc3s2)cc1` [1-(4-(Benzo[d]thiazol-2-yl)phenyl)-3-(pyridin-4-ylmethyl)urea]: 5000 to 20000 nM; for `O=C(NCc1ccncc1)Nc1ccc(S(=O)(=O)c2ccccn2)cc1` [1-(4-(Pyridin-2-ylsulfonyl)phenyl)-3-(pyridin-4-ylmethyl)urea]: 100 to 2000 nM; for `O=C(NCc1ccncc1)Nc1ccc(S(=O)(=O)c2ccccc2-c2ccccc2)cc1` [1-(4-([1,1′-Biphenyl]-2-ylsulfonyl)phenyl)-3-(pyridin-4-ylmethyl)urea]: 100 to 2000 nM.
In turn, `O=C(NCc1ccncc1)Nc1ccc(-c2cccc3scnc23)cc1` [1-(4-Benzothiazol-4-yl-phenyl)-3-pyridin-4-ylmethyl-urea] gave an EC50 of 100 to 2000 nM.
In turn, `O=C(NCc1ccncc1)Nc1ccc(S(=O)(=O)C2CCCCC2)cc1` [1-(4-Cyclohexanesulfonyl-phenyl)-3-pyridin-4-ylmethyl-urea] came in with a concentration giving a half-maximal response (EC50) of 100 to 2000 nM.

These data come from US11452717B2, “Small molecule activators of nicotinamide phosphoribosyltransferase (NAMPT) and uses thereof” (Sanford Burnham Prebys Medical Discovery Institute, priority 2017, dated 2022).
